Target: T1, HPK1 (Homo sapiens, UniProt Q92918)
T1 construct: A HiBiT tag was introduced by CRISPR on the N terminus of HPK1 in Jurkat cells; host or cells: Jurkat cells (ATCC TIB-152), monoclonal line with CRISPR knock-in of HiBiT at the endogenous HPK1 locus
Assay: HPK1 Cellular HiBit Degradation Assay
Assay type: cell-based
Details: HiBiT HPK1 Jurkat cells, 24 hrs; for DC50: concentration at which 50% of HPK1 was remaining, read-out: DC50 Category; for Dmax: Jurkat, maximum degradation vs DMSO vehicle control, read-out: Dmax Category
In short: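 Degraders are dosed in an 11-point series (10 uM to 0.1 nM final) onto Jurkat cells carrying an N-terminal HiBiT tag on endogenous HPK1. After 24 hrs at 37° C, lysis-based HiBiT luminescence quantifies remaining HPK1 relative to vehicle, and curve fitting gives DC50 and Dmax.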

T1 sequence (Q92918 whole entry): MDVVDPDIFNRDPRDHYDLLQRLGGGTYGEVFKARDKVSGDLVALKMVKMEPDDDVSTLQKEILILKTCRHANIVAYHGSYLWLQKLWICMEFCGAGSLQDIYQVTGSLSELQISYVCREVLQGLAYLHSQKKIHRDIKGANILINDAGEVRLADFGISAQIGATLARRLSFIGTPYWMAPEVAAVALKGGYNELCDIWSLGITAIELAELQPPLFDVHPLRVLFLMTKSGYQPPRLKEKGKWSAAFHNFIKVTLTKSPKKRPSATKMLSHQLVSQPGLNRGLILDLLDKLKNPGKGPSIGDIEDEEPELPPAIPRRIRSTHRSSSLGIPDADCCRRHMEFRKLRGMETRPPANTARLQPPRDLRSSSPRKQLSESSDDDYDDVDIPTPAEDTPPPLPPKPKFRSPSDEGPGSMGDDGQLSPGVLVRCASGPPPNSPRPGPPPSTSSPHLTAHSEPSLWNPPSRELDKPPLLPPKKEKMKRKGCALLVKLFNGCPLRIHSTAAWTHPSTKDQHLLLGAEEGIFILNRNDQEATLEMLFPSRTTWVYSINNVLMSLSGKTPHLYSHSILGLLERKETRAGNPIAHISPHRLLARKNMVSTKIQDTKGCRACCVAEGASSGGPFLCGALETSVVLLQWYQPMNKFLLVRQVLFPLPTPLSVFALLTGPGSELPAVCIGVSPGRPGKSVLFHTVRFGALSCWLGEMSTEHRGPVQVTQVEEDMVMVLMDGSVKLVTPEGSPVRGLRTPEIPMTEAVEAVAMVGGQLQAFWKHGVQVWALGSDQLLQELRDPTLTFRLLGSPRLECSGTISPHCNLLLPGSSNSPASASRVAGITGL

Row | SMILES | DC50 [nM] | Dmax [%]
1 | CC(C)n1cnc2cc(-c3ccc4c(c3)N([C@H]3C[C@@H](N5CCCCC5)C3)C(=O)C43CCN(C(=O)C4CCN(C(=O)C5CCN(c6ccc(C(=O)NC7CCC(=O)NC7=O)nc6)CC5)CC4)CC3)nc(Nc3ccccc3F)c21 (mixture of isomers) [Example 83, N-[(3RS)-2,6-dioxopiperidin-3-yl]-5-(4-{4-[(6-{4-[(2-fluorophenyl)amino]-3-(propan-2-yl)-3H-imidazo[4,5-c]pyridin-6-yl}-2-oxo-1-[(1S,3S)-3-(piperidin-1-yl)cyclobutyl]-1,2-dihydrospiro[indole-3,4′-piperidin]-1′-yl)carbonyl]piperidine-1-carbonyl}piperidin-1-yl)pyridine-2-carboxamide] | 100 to 500 | 50 to 70
2 | CC(C)n1cnc2cc(-c3ccc4c(c3)N([C@H]3C[C@@H](N5CCCCC5)C3)C(=O)C43CCN(C(=O)C[C@H]4CCCN(C(=O)C5CCN(c6ccc(C7CCC(=O)NC7=O)cn6)CC5)C4)CC3)nc(NC3CC3)c21 (mixture of isomers) [Example 296, (3RS)-3-(6-{4-[(3R)-3-(2-{6-[4-(cyclopropylamino)-3-(propan-2-yl)-3H-imidazo[4,5-c]pyridin-6-yl]-2-oxo-1-[(1S,3S)-3-(piperidin-1-yl)cyclobutyl]-1,2-dihydrospiro[indole-3,4′-piperidin]-1′-yl}-2-oxoethyl)piperidine-1-carbonyl]piperidin-1-yl}pyridin-3-yl)piperidine-2,6-dione] | 100 to 500 | 70 to 85
3 | CC(C)n1cnc2cc(-c3ccc4c(c3)N([C@H]3C[C@@H](N5CCCCC5)C3)C(=O)C43CCN(C(=O)C[C@H]4CCCN(C(=O)CC5CCN(c6ccc(C7CCC(=O)NC7=O)cn6)CC5)C4)CC3)nc(NC3CC3)c21 (mixture of isomers) [Example 297, (3RS)-3-[6-(4-{2-[(3R)-3-(2-{6-[4-(cyclopropylamino)-3-(propan-2-yl)-3H-imidazo[4,5-c]pyridin-6-yl]-2-oxo-1-[(1S,3S)-3-(piperidin-1-yl)cyclobutyl]-1,2-dihydrospiro[indole-3,4′-piperidin]-1′-yl}-2-oxoethyl)piperidin-1-yl]-2-oxoethyl}piperidin-1-yl)pyridin-3-yl]piperidine-2,6-dione] | 500 to 1000 | 50 to 70
4 | CC(C)n1cnc2cc(-c3ccc4c(c3)N([C@H]3C[C@@H](N5CCCCC5)C3)C(=O)C43CCN(C(=O)c4ccc(C(=O)N5CCN(c6ccc7c(c6)C(=O)N(C6CCC(=O)NC6=O)C7=O)CC5)nc4)CC3)nc(Nc3ccccc3F)c21 (mixture of isomers) [Example 45, 2-[(3RS)-2,6-dioxopiperidin-3-yl]-5-(4-{5-[(6-{4-[(2-fluorophenyl)amino]-3-(propan-2-yl)-3H-imidazo[4,5-c]pyridin-6-yl}-2-oxo-1-[(1S,3S)-3-(piperidin-1-yl)cyclobutyl]-1,2-dihydrospiro[indole-3,4′-piperidin]-1′-yl)carbonyl]pyridine-2-carbonyl}piperazin-1-yl)-2,3-dihydro-1H-isoindole-1,3-dione] | 100 to 500 | 70 to 85
5 | CC(C)n1cnc2cc(-c3ccc4c(c3)N([C@H]3C[C@@H](N5CCC[C@H](F)C5)C3)C(=O)C43CCN(C(=O)C4(C)CCN(C(=O)C5CCN(c6ccc(C7CCC(=O)NC7=O)cc6)CC5)CC4)CC3)nc(NC3CC3)c21 (mixture of isomers) [Example 198, (3RS)-3-(4-{4-[4-({6-[4-(cyclopropylamino)-3-(propan-2-yl)-3H-imidazo[4,5-c]pyridin-6-yl]-2-oxo-1-[(1S,3S)-3-[(3S)-3-fluoropiperidin-1-yl]cyclobutyl]-1,2-dihydrospiro[indole-3,4′-piperidin]-1′-yl}carbonyl)-4-methylpiperidine-1-carbonyl]piperidin-1-yl}phenyl)piperidine-2,6-dione] | 100 to 500 | 70 to 85
6 | Cc1cc(F)c(Nc2nc(-c3ccc4c(c3)N([C@H]3C[C@@H](N5CCCCC5)C3)C(=O)C43CCN(C(=O)C4=CCN(C(=O)C5CCN(c6ccc7c(c6)C(=O)N(C6CCC(=O)NC6=O)C7=O)CC5)CC4)CC3)cc3ncn(C(C)C)c23)cc1C(=O)NC(C)C (mixture of isomers) [Example 37, 5-[(6-{1′-[1-(1-{2-[(3RS)-2,6-dioxopiperidin-3-yl]-1,3-dioxo-2,3-dihydro-1H-isoindol-5-yl}piperidine-4-carbonyl)-1,2,3,6-tetrahydropyridine-4-carbonyl]-2-oxo-1-[(1S,3S)-3-(piperidin-1-yl)cyclobutyl]-1,2-dihydrospiro[indole-3,4′-piperidin]-6-yl}-3-(propan-2-yl)-3H-imidazo[4,5-c]pyridin-4-yl)amino]-4-fluoro-2-methyl-N-(propan-2-yl)benzamide] | 100 to 500 | 50 to 70

More lines, now with the values ahead:

Row | DC50 [nM] | Dmax [%] | SMILES
7 | < 100 | 70 to 85 | CC(C)n1cnc2cc(-c3ccc4c(c3)N([C@H]3C[C@@H](N5CCCCC5)C3)C(=O)C43CCN(C(=O)C4CCN(C(=O)[C@H]5CC[C@H](Oc6ccc(C7CCC(=O)NC7=O)cc6)CC5)CC4)CC3)nc(Nc3ccccc3F)c21 (mixture of isomers) [Example 60, (3RS)-3-(4-{[(1R,4R)-4-{4-[(6-{4-[(2-fluorophenyl)amino]-3-(propan-2-yl)-3H-imidazo[4,5-c]pyridin-6-yl}-2-oxo-1-[(1S,3S)-3-(piperidin-1-yl)cyclobutyl]-1,2-dihydrospiro[indole-3,4′-piperidin]-1′-yl)carbonyl]piperidine-1-carbonyl}cyclohexyl]oxy}phenyl)piperidine-2,6-dione]
8 | 100 to 500 | 50 to 70 | CC(C)n1cnc2cc(-c3ccc4c(c3)N([C@H]3C[C@@H](N5CCCCC5)C3)C(=O)C43CCN(C(=O)C4(C)CCN(C(=O)[C@H]5CC[C@H](Oc6ccc(N7CCC(=O)NC7=O)cn6)CC5)CC4)CC3)nc(Nc3ccncc3F)c21 [Example 109, 1-(6-{[(1R,4R)-4-{4-[(6-{4-[(3-Fluoropyridin-4-yl)amino]-3-(propan-2-yl)-3H-imidazo[4,5-c]pyridin-6-yl}-2-oxo-1-[(1S,3S)-3-(piperidin-1-yl)cyclobutyl]-1,2-dihydrospiro[indole-3,4′-piperidin]-1′-yl)carbonyl]-4-methylpiperidine-1-carbonyl}cyclohexyl]oxy}pyridin-3-yl)-1,3-diazinane-2,4-dione]
9 | < 100 | 70 to 85 | CC(C)n1cnc2cc(-c3ccc4c(c3)N([C@H]3C[C@@H](N5CCCCC5)C3)C(=O)C43CCN(C(=O)[C@@H]4CCCN(C(=O)CC5CCN(c6ccc(C7CCC(=O)NC7=O)cn6)CC5)C4)CC3)nc(NC3CC3)c21 (mixture of isomers) [Example 235, (3RS)-3-[6-(4-{2-[(3R)-3-({6-[4-(cyclopropylamino)-3-(propan-2-yl)-3H-imidazo[4,5-c]pyridin-6-yl]-2-oxo-1-[(1S,3S)-3-(piperidin-1-yl)cyclobutyl]-1,2-dihydrospiro[indole-3,4′-piperidin]-1′-yl}carbonyl)piperidin-1-yl]-2-oxoethyl}piperidin-1-yl)pyridin-3-yl]piperidine-2,6-dione]
10 | 100 to 500 | 50 to 70 | CC(C)n1cnc2cc(-c3ccc4c(c3)N([C@H]3C[C@@H](N5CCCCC5)C3)C(=O)C43CCN(C(=O)[C@H]4C[C@@H](C)CN(C(=O)C5CCN(c6ccc(C7CCC(=O)NC7=O)cn6)CC5)C4)CC3)nc(NC3CC3)c21 (mixture of isomers) [Example 246, (3RS)-3-(6-{4-[(3S,5R)-3-({6-[4-(cyclopropylamino)-3-(propan-2-yl)-3H-imidazo[4,5-c]pyridin-6-yl]-2-oxo-1-[(1S,3S)-3-(piperidin-1-yl)cyclobutyl]-1,2-dihydrospiro[indole-3,4′-piperidin]-1′-yl}carbonyl)-5-methylpiperidine-1-carbonyl]piperidin-1-yl}pyridin-3-yl)piperidine-2,6-dione]
11 | 100 to 500 | 70 to 85 | CC(C)n1cnc2cc(-c3ccc4c(c3)N([C@H]3C[C@@H](N5CCCCC5)C3)C(=O)C43CCN(C(=O)C4CCC5(CCN(C(=O)C6CCN(c7ccc(C8CCC(=O)NC8=O)cn7)CC6)CC5)C4)CC3)nc(NC3CC3)c21 (mixture of isomers) [Example 294, (3RS)-3-(6-{4-[2-({6-[4-(cyclopropylamino)-3-(propan-2-yl)-3H-imidazo[4,5-c]pyridin-6-yl]-2-oxo-1-[(1S,3S)-3-(piperidin-1-yl)cyclobutyl]-1,2-dihydrospiro[indole-3,4′-piperidin]-1′-yl}carbonyl)-8-azaspiro[4.5]decane-8-carbonyl]piperidin-1-yl}pyridin-3-yl)piperidine-2,6-dione]
12 | < 100 | 50 to 70 | CC(C)n1cnc2cc(-c3ccc4c(c3)N([C@H]3C[C@@H](N5CCCCC5)C3)C(=O)C43CCN(C(=O)C4CCN(C(=O)[C@H]5CC[C@H](N(C)c6ccc(C7CCC(=O)NC7=O)cn6)CC5)CC4)CC3)nc(NC3CC3)c21 (mixture of isomers) [Example 130, (3RS)-3-(6-{methyl[(1R,4R)-4-[4-({6-[4-(cyclopropylamino)-3-(propan-2-yl)-3H-imidazo[4,5-c]pyridin-6-yl]-2-oxo-1-[(1S,3S)-3-(piperidin-1-yl)cyclobutyl]-1,2-dihydrospiro[indole-3,4′-piperidin]-1′-yl}carbonyl)piperidine-1-carbonyl]cyclohexyl]amino}pyridin-3-yl)piperidine-2,6-dione]
13 | < 100 | 70 to 85 | CC(C)n1cnc2cc(-c3ccc4c(c3)N([C@H]3C[C@@H](N5CCCCC5)C3)C(=O)C43CCN(C(=O)C4CCN(C(=O)C5CCN(c6ccc(C7CCC(=O)NC7=O)cn6)CC5)CC4(F)F)CC3)nc(NC3CC3)c21 (mixture of isomers) [Example 273, (3RS)-3-(6-{4-[4-({6-[4-(cyclopropylamino)-3-(propan-2-yl)-3H-imidazo[4,5-c]pyridin-6-yl]-2-oxo-1-[(1S,3S)-3-(piperidin-1-yl)cyclobutyl]-1,2-dihydrospiro[indole-3,4′-piperidin]-1′-yl}carbonyl)-3,3-Difluoropiperidine-1-carbonyl]piperidin-1-yl}pyridin-3-yl)piperidine-2,6-dione]

From US12091426B2, “Bifunctional degraders of hematopoietic progenitor kinase and therapeutic uses thereof” (Nurix Therapeutics, Inc., priority 2021, dated 2024)
